For 1 compound, MIC results are on record in patent publication US4547488A, “Antibiotic M43D, pharmaceutical compositions and method of use” (priority 1984, dated 1985).

≈ marks a conversion by molar mass, not a printed value.

What all share (assay): agar-dilution MIC
Common to all, as to format: cell-based

Assay [1] has as its system Streptococcus sp. group D 2041.
Assay [2] has as its system Streptococcus faecium ATCC 9790.
In assay [3] the test system is Haemophilus influenzae C.L.
The test system of assay [4] is Streptococcus pyogenes C203.
Assay [5] relates to Haemophilus influenzae 76.
Assay [6] concerns Klebsiella pneumoniae X68.
The test system of assay [7] is Klebsiella pneumoniae KAE.

`CN[C@H](CC(C)C)C(=O)N[C@H]1C(=O)N[C@@H](CC(N)=O)C(=O)N[C@H]2C(=O)N[C@H]3C(=O)N[C@H](C(=O)N[C@H](C(=O)O)c4cc(O)cc(O)c4-c4cc3ccc4O)[C@H](O)c3ccc(c(Cl)c3)Oc3cc2cc(c3O[C@@H]2O[C@H](CO)[C@@H](O)[C@H](O)[C@H]2O[C@H]2C[C@](C)(N)[C@H](O)[C@H](C)O2)Oc2ccc(cc2Cl)[C@H]1O` [Vancomycin]: the MIC was 4 µg/mL (≈ 2.76 µM) in assay [1]; 1 µg/mL (≈ 0.69 µM) in assay [2]; 64 µg/mL (≈ 44.2 µM) in assay [3]; 0.5 µg/mL (≈ 0.345 µM) in assay [4]; 128 µg/mL (≈ 88.3 µM) in assay [5]; > 128 µg/mL in assay [6]. Moreover, the MIC in assay [7] is > 128 µg/mL.
